According to US8354414B2, “Substituted bicyclic pyrimidines” (Cephalon, Inc, priority 2006, dated 2013):
Counter-ions that a name gives are not always drawn.

Tests used:
CDK5/GST-p25 = target: T1, CDK5/GST-p25 (Homo sapiens, UniProt Q00535); experiment: Inhibition of CDK5/GST-p25 kinase activity (ELISA with time-resolved fluorescence readout); format: biochemical
T1 construct: The final construct, encoding for full-length human CDK5; made in house; host or cells: Sf21 insect cells (baculovirus co-infection)
T1 sequence (Q00535 whole entry): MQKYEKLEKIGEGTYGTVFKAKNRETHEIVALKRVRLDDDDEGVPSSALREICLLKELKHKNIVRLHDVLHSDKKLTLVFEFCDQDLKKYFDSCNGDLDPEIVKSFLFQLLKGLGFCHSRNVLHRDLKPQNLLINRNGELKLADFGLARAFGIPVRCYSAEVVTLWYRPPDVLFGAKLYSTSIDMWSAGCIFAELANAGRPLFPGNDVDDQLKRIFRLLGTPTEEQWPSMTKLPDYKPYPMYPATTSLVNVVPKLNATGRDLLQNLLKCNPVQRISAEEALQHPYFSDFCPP
T1 sequence (Q15078 108-307 partner limits assumed): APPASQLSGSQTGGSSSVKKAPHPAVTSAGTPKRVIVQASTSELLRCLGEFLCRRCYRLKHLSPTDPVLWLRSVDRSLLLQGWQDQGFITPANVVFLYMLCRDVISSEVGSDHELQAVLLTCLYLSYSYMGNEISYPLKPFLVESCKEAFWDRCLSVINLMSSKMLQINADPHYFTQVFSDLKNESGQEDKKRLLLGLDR
Method: Two recombinant baculoviral constructs were created, one encoding for human CDK5 and the other encoding for human p25 with an amino-terminal glutathione-S-transferase (GST) tag. PCR amplification of full-length CDK5 was performed utilizing human brain cDNA as a template and Pfu Turbo polymerase (Strategene). The PCR product from this reaction was subcloned into the baculoviral expression vector pFASTBAC1 (Gibco/BRL). The final construct, encoding for full-length human CDK5 (base pairs 25-903 of GenBank Accession #NM_004935), is 292 amino acids long with a predicted MW of 33.3 kDa.
For p25, the active truncated form of p35, amino acids 108-307 were PCR-amplified from human fetal brain cDNA (Clontech QUICK-Clone cDNA) using the Advantage 2 PCR system (Clontech). The PCR product was subcloned into the baculoviral transfer vector pFBGSTP (an engineered derivative of the baculoviral transfer vector pFASTBAC1). The final baculoviral construct encodes for base pairs 419-1021 of GenBank Accession #NM_003885, with an amino-terminal GST tag. The expressed GST-p25 is 444 amino acids long with a predicted MW of 50.3 kDa.
The CDK5/GST-p25 complex was generated by coexpression. Sf21 cells were cultured in TNM-FHS media at a density of 1.5×10^6 cells/mL and infected with each recombinant virus at MOI values of 5 (for CDK5) and 10 (for GST-p25). The cells were harvested 40 h after infection. For purification, the 100,000×g supernatant solution was used. Expression was confirmed by running samples on SDS-PAGE, followed by immunoblot analysis utilizing antibodies against CDK5 (anti-CDK5 (268-283); Calbiochem #219449) and p35 (Santa Cruz #sc820). The CDK5/GST-p25 complex was purified by glutathione affinity chromatography.
Compounds were tested for their ability to inhibit the kinase activity of recombinant baculoviral CDK5/GST-p25 using an enzyme-linked immunosorbent assay (ELISA) with time-resolved fluorescence (TRF) readout. Briefly, each 384-well FluoroNunc Maxisorp plate (Cat # 460372) plate was coated with 50 μl/well of 50 μg/ml substrate solution (recombinant GST-Rb(773-928)) in Tris-buffered saline (TBS). The CDK5/GST-p25 assay mixture (total volume=50 μl/well) consisting of 20 mM HEPES (pH 7.2), 10 μM ATP, 10 mM MgCl2, 5 mM EGTA, 25 mM β-glycerophosphate, 0.05% BSA, 2.5% DMSO, and various concentrations of test compound were then added to the assay plate. Enzyme (2 ng/ml CDK5/GST-p25) was added and the reaction was allowed to proceed at 37° C. for 20 minutes. Detection of the phosphorylated product was performed by adding 50 μl/well of phospho-Rb (Ser-780) antibody (Cell Signaling # 9307) diluted 1:10,000 in antibody dilution buffer (0.1% BSA in TBST). After 1-hour incubation at 37° C., 50 μl/well of Eu-Nl labelled anti-rabbit antibody (Wallac # AD0105; 1:50,000 in antibody dilution buffer) was added. Incubation at 37° C. then proceeded for 1 hour, followed by addition of 50 μl enhancement solution (Wallac #1244-105). The plate was gently agitated and after a few minutes, the fluorescence of the resulting solution was measured using a Multilabel Reader (Victor2 Model # 1420-018 or Envision Model # 2100). Inhibition data were analyzed using ActivityBase and IC50 curves were generated using XLFit 3.0.5.

His6-GSK-3β = target: T2, His6-GSK-3β (Homo sapiens, UniProt P49841); experiment: Inhibition of His6-GSK-3β kinase activity (ELISA-based format, time-resolved fluorescence readout); format: biochemical; details: class symbols; read-out: GSK3β IC50
T2 construct: made in house; host or cells: Sf21 insect cells (baculovirus)
T2 sequence (P49841 2-419): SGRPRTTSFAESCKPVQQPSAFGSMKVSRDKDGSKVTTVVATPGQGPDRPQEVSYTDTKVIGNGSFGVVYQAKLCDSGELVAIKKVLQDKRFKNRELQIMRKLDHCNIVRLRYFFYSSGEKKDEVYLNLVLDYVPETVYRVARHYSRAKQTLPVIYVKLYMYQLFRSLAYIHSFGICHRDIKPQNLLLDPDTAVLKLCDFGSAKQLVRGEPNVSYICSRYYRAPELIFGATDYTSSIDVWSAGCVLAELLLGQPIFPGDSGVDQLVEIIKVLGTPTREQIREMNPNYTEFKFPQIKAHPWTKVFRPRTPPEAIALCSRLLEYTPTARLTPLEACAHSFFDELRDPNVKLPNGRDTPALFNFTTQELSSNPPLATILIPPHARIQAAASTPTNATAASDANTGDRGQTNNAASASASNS
Text: Full-length GSK-3β was amplified from a sequence-verified I.M.A.G.E. EST acquired from Research Genetics (Invitrogen, Clone ID# CSODB003YJ02). The final sequence-verified cDNA contained the coding region for a NH2-terminal tag, which encoded for 6 histidines and then eight vector-encoded amino acids prior to the start of GSK3β, which contained by # 43-1342 of Genbank Accession # NM_002093, encoding amino acids #2-419. The predicted molecular weight of the tagged, 435 amino acid, full-length protein is 48.5 kDa. The major structural element of this protein is the kinase domain, which is from amino acids #56-340. Recombinant baculoviral DNA was prepared by transposition in E. coli (BAC-TO-BAC system: Invitrogen) and the virus generated and amplified in Sf21 insect cells. A suspension culture of Sf21 cells was infected at an MOI of 0.7 and cell density of 1.5×10^6 cells/mL in Excell 420 serum-free media (JRH BioScience) and harvested 65 h after infection. The 100,000×g supernatant solution was used for purification. Expression was confirmed by running samples on SDS-PAGE, followed by immunoblot analysis utilizing both a Penta-HIS antibody (Qiagen #34660) and a GSK-3α/GSK-3β antibody (Calbiochem #368662, data not shown). The His6-tagged protein was purified to in one step by Ni-NTA affinity chromatography.
Inhibitory effects of compounds on baculoviral GSK-3β kinase activity were evaluated using an ELISA-based format in a 384-well FluoroNunc Maxisorp plate (Cat # 460372) with a time-resolved fluorescence readout. Briefly, each plate was coated with 50 μl/well of 20 μg/ml substrate solution (recombinant GST-Rb) in Tris-buffered saline (TBS). The GSK-3β assay mixture (total volume=50 μl/well) consisting of 50 mM HEPES (pH 7.2), 20 μM ATP, 10 mM MgCl2, 5 mM EGTA, 25 mM β-glycerophosphate, 0.05% BSA, 2.5% DMSO, and various concentrations of test compound were then added to the assay plate. Enzyme (200 ng/ml His6-GSK-3β) was then added and the reaction was allowed to proceed at 37° C. for 30 minutes. Detection of the phosphorylated product was performed by adding 50 μl/well of phospho-Rb (Ser-780) antibody (Cell Signaling # 9307) diluted 1:10,000 in antibody dilution buffer (0.1% BSA in TBST). After 1-hour incubation at 37° C., 50 μl/well of Eu-N1 labelled anti-rabbit antibody (Wallac # AD0105; 1:50,000 in antibody dilution buffer) was added. Incubation at 37° C. then proceeded for 1 hour, followed by addition of 50 μl enhancement solution (Wallac #1244-105). The plate was gently agitated and after a few minutes, the fluorescence of the resulting solution was measured using a Multilabel Reader (Victor2 Model # 1420-018 or Envision Model 2100). Inhibition data were analyzed using ActivityBase and IC50 curves were generated using XLFit 3.0.5.

Row | SMILES | IC50 (CDK5/GST-p25; class symbols) | IC50 (His6-GSK-3β) | IC50 (CDK5/GST-p25; numeric bounds)
1 | COCCn1cc2c(C3C(=O)Nc4ccc(Br)cc43)nc(NCCC3CCNCC3)nc2n1 (stereo not shown) [Example 227, 5-Bromo-3-[2-(2-methoxy-ethyl)-6-(2-piperidin-4-yl-ethylamino)-2H-pyrazolo[3,4-d]pyrimidin-4-yl]-1,3-dihydro-indol-2-one] | < 300 nM | < 300 nM | –
2 | CN(C)CCNc1nc2c(c(C3C(=O)Nc4ccc(Cl)cc43)n1)CCC2 (stereo not shown) [Example 323, 5-Chloro-3-[2-(2-dimethylamino-ethylamino)-6,7-dihydro-5H-cyclopentapyrimidin-4-yl]-1,3-dihydro-indol-2-one] | > 10000 nM | > 10000 nM | –
3 | C=CCNc1nc(C2C(=O)Nc3ccc(Br)cc32)c2cn(CCC)nc2n1 (stereo not shown) [Example 193, 3-(6-Allylamino-2-propyl-2H-pyrazolo[3,4-d]pyrimidin-4-yl)-5-bromo-1,3-dihydro-indol-2-one] | < 300 nM | < 300 nM | –
4 | CCN(CC)CCN(C)c1nc(C2C(=O)Nc3ccc(C#N)cc32)c2cn(C3CCCC3)nc2n1 (stereo not shown) [Example 121, 3-{2-cyclopentyl-6-[(2-diethylamino-ethyl)-methyl-amino]-2H-pyrazolo [3,4-d]pyrimidin-4-yl}-2-oxo-2,3-dihydro-1H-indole-5-carbonitrile] | > 10000 nM | < 300 nM | –
5 | N#Cc1ccc2c(c1)C(c1nc(NCc3ccncc3)nc3nn(C4CCCC4)cc13)C(=O)N2 (stereo not shown) [Example 176, 3-{2-Cyclopentyl-6-[(pyridin-4-ylmethyl)-amino]-2H-pyrazolo[3,4-d]pyrimidin-4-yl}-2-oxo-2,3-dihydro-1H-indole-5-carbonitrile] | < 300 nM | < 300 nM | –
6 | CCCn1cc2c(C3C(=O)Nc4ccc(Br)cc43)nc(NCCC(F)(F)F)nc2n1 (stereo not shown) [Example 192, 5-Bromo-3-[2-propyl-6-(3,3,3-trifluoro-propylamino)-2H-pyrazolo[3,4-d]pyrimidin-4-yl]-1,3-dihydro-indol-2-one] | < 300 nM | < 300 nM | –
7 | O=C1Nc2ccc(Cl)cc2C1c1nc(NCc2ccc(Cl)nc2)nc2c1CCC2 (stereo not shown) [Example 328, 5-Chloro-3-{2-[(6-chloro-pyridin-3-ylmethyl)-amino]-6,7-dihydro-5H-cyclopentapyrimidin-4-yl}-1,3-dihydro-indol-2-one] | > 10000 nM | > 10000 nM | –
8 | CCCn1cc2c(C3C(=O)Nc4ccc(Br)cc43)nc(NC[C@H](O)CO)nc2n1 (stereo partly drawn) [Example 364, 5-Bromo-3-[6-((S)-2,3-dihydroxy-propylamino)-2-propyl-2H-pyrazolo [3,4-d]pyrimidin-4-yl]-1,3-dihydro-indol-2-one] | < 300 nM | < 300 nM | –
9 | N#Cc1ccc2c(c1)C(c1nc(NCc3cccnc3)nc3c1CCC3)C(=O)N2 (stereo not shown) [Example 348, 2-Oxo-3-{2-[(pyridin-3-ylmethyl)-amino]-6,7-dihydro-5H-cyclopentapyrimidin-4-yl}-2,3-dihydro-1H-indole-5-carbonitrile] | < 300 nM | 300 to 3000 nM | –
10 | COc1ccc(Nc2nc3c(c(C4C(=O)Nc5ccc(C#N)cc54)n2)CCC3)cn1 (stereo not shown) [Example 352, 3-[2-(6-Methoxy-pyridin-3-ylamino)-6,7-dihydro-5H-cyclopentapyrimidin-4-yl]-2-oxo-2,3-dihydro-1H-indole-5-carbonitrile] | > 10000 nM | > 10000 nM | –

The next lines start with the values.

Row | IC50 (CDK5/GST-p25; class symbols) | IC50 (His6-GSK-3β) | IC50 (CDK5/GST-p25; numeric bounds) | SMILES
11 | 300 to 3000 nM | < 300 nM | – | CN(C)CCCNc1nc(C2C(=O)Nc3ccc(C#N)cc32)c2cn(C3CCCC3)nc2n1 (stereo not shown) [Example 138, 3-[2-cyclopentyl-6-(3-dimethylamino-propylamino)-2H-pyrazolo[3,4-d]pyrimidin-4-yl]-2-oxo-2,3-dihydro-1H-indole-5-carbonitrile]
12 | 300 to 3000 nM | 300 to 3000 nM | – | CNCCNc1nc(C2C(=O)Nc3ccc(Br)cc32)c2cn(C)nc2n1 (stereo not shown) [Example 360, 5-Bromo-3-[2-methyl-6-(2-methylamino-ethylamino)-2H-pyrazolo[3,4-d]pyrimidin-4-yl]-1,3-dihydro-indol-2-one hydrochloride salt]
13 | > 10000 nM | < 300 nM | – | N#Cc1ccc2c(c1)C(c1nc(O)nc3nn(C4CCCC4)cc13)C(=O)N2 (stereo not shown) [Example 120, 3-(2-cyclopentyl-6-hydroxy-2H-pyrazolo [3,4-d]pyrimidin-4-yl)-2-oxo-2,3-dihydro-1H-indole-5-carbonitrile]
14 | > 10000 nM | < 300 nM | – | N#Cc1ccc2c(c1)C(c1nc(Cl)nc3nn(C4CCCC4)cc13)C(=O)N2 (stereo not shown) [Example 113, 3-(6-Chloro-2-cyclopentyl-2H-pyrazolo[3,4-d]pyrimidin-4-yl)-2-oxo-2,3-dihydro-1H-indole-5-carbonitrile]
15 | – | < 300 nM | > 3000 nM | N#Cc1ccc2c(c1)C(c1nc(NCCN3CCCC3)nc3nn(C4CCCC4)cc13)C(=O)N2 (stereo not shown) [Example 136, 3-[2-cyclopentyl-6-(2-pyrrolidin-1-yl-ethylamino)-2H-pyrazolo[3,4-d]pyrimidin-4-yl]-2-oxo-2,3-dihydro-1H-indole-5-carbonitrile]
16 | > 10000 nM | > 10000 nM | – | O=C1Nc2ccc(F)cc2C1c1nc(NCCN2CCOCC2)nc2c1CCC2 (stereo not shown) [Example 318, 5-Fluoro-3-[2-(2-morpholin-4-ylethylamino)-6,7-dihydro-5H-cyclopentapyrimidin-4-yl]-1,3-dihydro-indol-2-one]
17 | 300 to 3000 nM | 300 to 3000 nM | – | CN(C)CCNc1nc(C2C(=O)Nc3ccc(Br)cc32)c2cn(C)nc2n1 (stereo not shown) [Example 359, 5-Bromo-3-[6-(2-dimethylamino-ethylamino)-2-methyl-2H-pyrazolo[3,4-d]pyrimidin-4-yl]-1,3-dihydro-indol-2-one]
